# Reference: article PMC9481570, “A small molecule antagonist of SMN disrupts the interaction between SMN and RNAP II” (Nature Communications, 2022)
# Where “and” joins values, the source holds several entries; their conditions need not be identical. Identical values can stand only once.
# Experiments:
# Assay in all cases: Affinity-purification and mass spectrometry (AP-MS) chemical proteomics, all proteins;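 on Difference: 200 µM free competitor with 20 µM biotin probe overnight in lysate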
# Type in all cases: binding
# [1] = target: T1, proteins displaced from immobilized biotin-Cmpd 1 pulldowns (U2OS cell lysate) (Homo sapiens, UniProt Q9Y6M1); details: GN=IGF2BP2 (Q9Y6M1)
# T1 construct: endogenous in cells; host or cells: U2OS
# Method: (§1) The samples for AP-MS were prepared following pulldown procedure as previously described with minor modifications. Briefly, U2OS cells were lysed in RIPA buffer and the cell lysate was equally divided into two groups: (1) DMSO group (control group): the cell lysate was incubated with 20 μM biotin-labeled compound 1; (2) Cpmd 1 group (sample group): the cell lysate was incubated with 20 μM biotin-labeled compound 1 and 200 μM free compound 1. Each group contains three biological replicates. They were incubated overnight at 4 °C, then 30 μL streptavidin beads (Thermo Fisher, 20353) was added and incubated at 4 °C for 1 h. The beads were then washed with RIPA buffer for 3 times, 10 min/time.
# (§2) Beads were rinsed twice with 50 mM TEAB, pH 7.55, before eluting proteins with 25 μL of 5% SDS, 50 mM TEAB, pH 7.55. The sample was then centrifuged at 17,000 × g for 10 min to remove any debris. Proteins were reduced with 20 mM TCEP (Thermo Fisher, 77720) and incubated at 65 °C for 30 min. The sample was cooled to room temperature and 1 μL of 0.5 M iodoacetamide acid was added and allowed to react for 20 min in dark. Phosphoric acid (12%, 2.75 μL) was added to the protein solution, followed by adding 165 μL of binding buffer (90% methanol, 100 mM TEAB, pH 7.1). The resulting solution was added to S-Trap spin column (protifi.com) and passed through the column using a bench top centrifuge (30 s spin at 4000 × g). The spin column was washed with 400 μL of binding buffer and centrifuged. This step was repeated two more times. Then trypsin was added to the protein mixture at a mass ratio of 1:25 in 50 mM TEAB, pH 8.0, and the sample was incubated at 37 °C for 4 h. Peptides were eluted with 80 μL of 50 mM TEAB, followed by 80 μL of 0.2% formic acid, and finally 80 μL of 50% acetonitrile, 0.2% formic acid. The combined peptide solution was then dried in a speed vac and resuspended in 2% acetonitrile, 0.1% formic acid, 97.9% water and placed in an autosampler vial.
# (§3) Samples were analyzed by nanoLC-MS/MS (nanoRSLC, Thermo Fisher) using an Aurora series (Ion Opticks) reversed phase HPLC column (25 cm length × 75 µm inner diameter) and directly injected to an Orbitrap Eclipse (Thermo Fisher) using a 120 min gradient (mobile phase A = 0.1% formic acid, mobile phase B = 99.9% acetonitrile with 0.1% formic acid; hold 2% B for 5 min, 2–6% B in 0.1 min, 6–25% in 100 min, 25–50% in 15 min) at a flow rate of 350 nL/min. Eluted peptide ions were analyzed using a data-dependent acquisition (DDA) method with resolution settings of 120,000 and 15,000 (at m/z 200) for MS1 and MS2 scans, respectively. DDA-selected peptides were fragmented using stepped high energy collisional dissociation (27, 32, and 37%).
# (§4) The data of AP-MS were analyzed as a previously described method with minor modifications. Briefly, the raw MS files were searched with MaxQuant software (version 1.6.1.1, www.maxquant.org)[56] against the UniProt human protein database (www.uniprot.org) concatenated with common contaminants and the decoy database. The mass tolerance for precursor ions was set to 20 ppm and 4.5 ppm for the first and main search, respectively. The cysteine carbamidomethylation was set as fixed modification and methionine oxidation and N-terminal acetylation as variable modifications. Enzyme specificity was set to trypsin and a maximum missed cleavage was set as 2. The 1% false discovery rate (FDR) at both peptide and protein levels was applied for the analysis. Relative protein quantification was based on the label-free quantification incorporated in the MaxQuant software. The iBAQ intensity of proteins was obtained for the control and experimental samples. The missing iBAQ intensity was replaced by a random number, which was calculated from a normal distribution with a width of 0.3 and a downshift of 1.8 defined by Perseus software (version 1.6.5.0). The P-value was calculated by performing two-sample Student’s t-test. […]
# [2] = target: T2, proteins displaced from immobilized biotin-Cmpd 1 pulldowns (U2OS cell lysate) (Homo sapiens, UniProt P01876); details: GN=IGHA1 (P01876)
# T2 construct: endogenous in cells; host or cells: U2OS
# Method: as §1, §2, §3, §4
# [3] = target: T3, proteins displaced from immobilized biotin-Cmpd 1 pulldowns (U2OS cell lysate) (Homo sapiens, UniProt P05109); details: GN=S100A8 (P05109)
# T3 construct: endogenous in cells; host or cells: U2OS
# Method: as §1, §2, §3, §4
# [4] = target: T4, proteins displaced from immobilized biotin-Cmpd 1 pulldowns (U2OS cell lysate) (Homo sapiens, UniProt Q6PK04); details: GN=CCDC137 (Q6PK04)
# T4 construct: endogenous in cells; host or cells: U2OS
# Method: as §1, §2, §3, §4
# [5] = target: T5, proteins displaced from immobilized biotin-Cmpd 1 pulldowns (U2OS cell lysate) (Homo sapiens, UniProt P06748); details: GN=NPM1 (P06748)
# T5 construct: endogenous in cells; host or cells: U2OS
# Method: as §1, §2, §3, §4
# [6] = target: T6, proteins displaced from immobilized biotin-Cmpd 1 pulldowns (U2OS cell lysate) (Homo sapiens, UniProt P56537); details: GN=EIF6 (P56537)
# T6 construct: endogenous in cells; host or cells: U2OS
# Method: as §1, §2, §3, §4
# [7] = target: T7, proteins displaced from immobilized biotin-Cmpd 1 pulldowns (U2OS cell lysate) (Homo sapiens, UniProt P20042); details: GN=EIF2S2 (P20042)
# T7 construct: endogenous in cells; host or cells: U2OS
# Method: as §1, §2, §3, §4
# [8] = target: T8, proteins displaced from immobilized biotin-Cmpd 1 pulldowns (U2OS cell lysate) (Homo sapiens, UniProt Q6UWP8); details: GN=SBSN (Q6UWP8)
# T8 construct: endogenous in cells; host or cells: U2OS
# Method: as §1, §2, §3, §4
# [9] = target: T9, proteins displaced from immobilized biotin-Cmpd 1 pulldowns (U2OS cell lysate) (Homo sapiens, UniProt P62136); details: GN=PPP1CA (P62136)
# T9 construct: endogenous in cells; host or cells: U2OS
# Method: as §1, §2, §3, §4
# [10] = target: T10, proteins displaced from immobilized biotin-Cmpd 1 pulldowns (U2OS cell lysate) (Homo sapiens, UniProt P57678); details: GN=GEMIN4 (P57678)
# T10 construct: endogenous in cells; host or cells: U2OS
# Method: as §1, §2, §3, §4
# T5 sequence (P06748 whole entry): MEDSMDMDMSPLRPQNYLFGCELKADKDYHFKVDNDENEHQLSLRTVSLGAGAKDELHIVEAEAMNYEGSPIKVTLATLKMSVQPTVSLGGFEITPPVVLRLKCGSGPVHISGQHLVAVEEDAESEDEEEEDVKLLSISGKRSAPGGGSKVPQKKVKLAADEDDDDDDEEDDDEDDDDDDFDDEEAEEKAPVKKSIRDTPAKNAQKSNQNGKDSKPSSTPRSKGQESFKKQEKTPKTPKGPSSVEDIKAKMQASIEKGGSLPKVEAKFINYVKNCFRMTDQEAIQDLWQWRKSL
# T9 sequence (P62136 whole entry): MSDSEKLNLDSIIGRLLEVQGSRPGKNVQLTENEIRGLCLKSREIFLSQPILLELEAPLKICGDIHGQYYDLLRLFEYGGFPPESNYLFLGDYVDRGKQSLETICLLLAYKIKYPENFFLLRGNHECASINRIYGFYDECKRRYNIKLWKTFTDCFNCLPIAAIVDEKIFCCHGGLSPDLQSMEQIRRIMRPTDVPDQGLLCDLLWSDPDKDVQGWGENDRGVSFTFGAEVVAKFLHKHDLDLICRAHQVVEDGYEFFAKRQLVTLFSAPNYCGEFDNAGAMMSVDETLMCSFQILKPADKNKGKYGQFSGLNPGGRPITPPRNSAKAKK
# T7 sequence (P20042 whole entry): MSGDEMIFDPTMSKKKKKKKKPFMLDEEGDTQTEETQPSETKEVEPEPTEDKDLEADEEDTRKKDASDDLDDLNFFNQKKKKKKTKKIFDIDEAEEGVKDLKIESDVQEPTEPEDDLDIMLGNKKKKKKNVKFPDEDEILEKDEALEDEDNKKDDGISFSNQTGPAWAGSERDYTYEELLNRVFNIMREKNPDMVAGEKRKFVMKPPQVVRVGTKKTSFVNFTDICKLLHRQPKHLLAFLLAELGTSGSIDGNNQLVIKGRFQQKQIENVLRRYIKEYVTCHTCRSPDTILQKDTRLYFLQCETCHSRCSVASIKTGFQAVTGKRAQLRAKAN
# T8 sequence (Q6UWP8 26-590): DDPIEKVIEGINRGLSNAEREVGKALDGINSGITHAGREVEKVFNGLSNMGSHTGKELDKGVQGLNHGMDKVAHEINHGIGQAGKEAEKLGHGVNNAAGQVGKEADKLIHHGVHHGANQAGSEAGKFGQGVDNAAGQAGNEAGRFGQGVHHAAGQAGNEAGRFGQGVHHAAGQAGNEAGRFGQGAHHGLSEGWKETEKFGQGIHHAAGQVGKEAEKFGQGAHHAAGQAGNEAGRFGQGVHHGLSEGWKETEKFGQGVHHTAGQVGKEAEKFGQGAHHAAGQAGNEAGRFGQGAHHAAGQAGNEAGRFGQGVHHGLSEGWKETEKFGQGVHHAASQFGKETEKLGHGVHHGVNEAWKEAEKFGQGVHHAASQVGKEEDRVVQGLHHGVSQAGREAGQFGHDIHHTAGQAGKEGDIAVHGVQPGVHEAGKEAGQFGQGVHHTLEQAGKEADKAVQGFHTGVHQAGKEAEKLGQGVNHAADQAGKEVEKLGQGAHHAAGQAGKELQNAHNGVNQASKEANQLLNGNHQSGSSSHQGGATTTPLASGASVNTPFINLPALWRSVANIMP
# T3 sequence (P05109 whole entry): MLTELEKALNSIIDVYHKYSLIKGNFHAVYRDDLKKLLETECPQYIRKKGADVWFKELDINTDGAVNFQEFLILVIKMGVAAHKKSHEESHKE
# T4 sequence (Q6PK04 whole entry): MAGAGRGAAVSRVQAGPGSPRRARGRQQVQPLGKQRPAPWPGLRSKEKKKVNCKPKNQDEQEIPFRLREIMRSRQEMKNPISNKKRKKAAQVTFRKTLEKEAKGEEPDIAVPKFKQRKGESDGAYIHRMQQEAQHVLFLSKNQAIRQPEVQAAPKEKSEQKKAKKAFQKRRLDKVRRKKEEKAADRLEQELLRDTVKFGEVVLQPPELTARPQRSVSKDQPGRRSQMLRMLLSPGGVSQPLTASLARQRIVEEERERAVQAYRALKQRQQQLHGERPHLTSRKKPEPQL
# T2 sequence (P01876 whole entry): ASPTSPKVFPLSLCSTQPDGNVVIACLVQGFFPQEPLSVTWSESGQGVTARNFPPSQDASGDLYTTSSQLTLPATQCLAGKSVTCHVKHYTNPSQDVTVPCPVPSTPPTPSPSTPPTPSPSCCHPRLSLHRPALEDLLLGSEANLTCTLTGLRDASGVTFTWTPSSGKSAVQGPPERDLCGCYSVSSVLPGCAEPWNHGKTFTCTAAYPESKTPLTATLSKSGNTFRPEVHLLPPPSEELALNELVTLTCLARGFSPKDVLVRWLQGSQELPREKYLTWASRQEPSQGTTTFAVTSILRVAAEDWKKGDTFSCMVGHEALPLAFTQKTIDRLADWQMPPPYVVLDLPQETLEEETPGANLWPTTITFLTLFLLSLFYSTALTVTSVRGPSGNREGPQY
# T10 sequence (P57678 whole entry): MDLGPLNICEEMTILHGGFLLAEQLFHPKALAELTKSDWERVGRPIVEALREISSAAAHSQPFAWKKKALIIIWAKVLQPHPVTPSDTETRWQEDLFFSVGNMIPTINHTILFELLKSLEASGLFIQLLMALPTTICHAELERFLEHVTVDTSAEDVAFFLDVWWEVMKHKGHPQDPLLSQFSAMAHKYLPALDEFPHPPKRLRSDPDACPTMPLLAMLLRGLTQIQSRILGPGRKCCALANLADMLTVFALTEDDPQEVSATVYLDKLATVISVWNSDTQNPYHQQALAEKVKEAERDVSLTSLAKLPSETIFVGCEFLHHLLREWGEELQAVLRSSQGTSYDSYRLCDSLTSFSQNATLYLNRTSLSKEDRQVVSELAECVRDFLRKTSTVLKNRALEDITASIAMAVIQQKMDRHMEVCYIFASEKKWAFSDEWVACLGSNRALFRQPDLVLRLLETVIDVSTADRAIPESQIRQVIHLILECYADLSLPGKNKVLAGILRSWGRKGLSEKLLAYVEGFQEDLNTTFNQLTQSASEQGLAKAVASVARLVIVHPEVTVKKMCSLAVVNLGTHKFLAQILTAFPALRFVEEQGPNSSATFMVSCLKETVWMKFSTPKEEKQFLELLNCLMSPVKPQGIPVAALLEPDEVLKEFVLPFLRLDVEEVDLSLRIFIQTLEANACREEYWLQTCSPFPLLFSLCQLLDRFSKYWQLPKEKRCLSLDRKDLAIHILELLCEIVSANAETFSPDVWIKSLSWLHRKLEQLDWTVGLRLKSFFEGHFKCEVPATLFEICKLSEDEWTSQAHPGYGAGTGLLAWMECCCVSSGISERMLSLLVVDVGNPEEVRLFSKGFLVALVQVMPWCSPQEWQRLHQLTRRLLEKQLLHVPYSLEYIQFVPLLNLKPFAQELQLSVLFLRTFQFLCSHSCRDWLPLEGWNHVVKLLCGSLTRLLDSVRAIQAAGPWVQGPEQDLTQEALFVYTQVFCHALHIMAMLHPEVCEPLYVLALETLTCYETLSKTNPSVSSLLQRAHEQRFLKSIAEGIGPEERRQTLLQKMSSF
# T1 sequence (Q9Y6M1 whole entry): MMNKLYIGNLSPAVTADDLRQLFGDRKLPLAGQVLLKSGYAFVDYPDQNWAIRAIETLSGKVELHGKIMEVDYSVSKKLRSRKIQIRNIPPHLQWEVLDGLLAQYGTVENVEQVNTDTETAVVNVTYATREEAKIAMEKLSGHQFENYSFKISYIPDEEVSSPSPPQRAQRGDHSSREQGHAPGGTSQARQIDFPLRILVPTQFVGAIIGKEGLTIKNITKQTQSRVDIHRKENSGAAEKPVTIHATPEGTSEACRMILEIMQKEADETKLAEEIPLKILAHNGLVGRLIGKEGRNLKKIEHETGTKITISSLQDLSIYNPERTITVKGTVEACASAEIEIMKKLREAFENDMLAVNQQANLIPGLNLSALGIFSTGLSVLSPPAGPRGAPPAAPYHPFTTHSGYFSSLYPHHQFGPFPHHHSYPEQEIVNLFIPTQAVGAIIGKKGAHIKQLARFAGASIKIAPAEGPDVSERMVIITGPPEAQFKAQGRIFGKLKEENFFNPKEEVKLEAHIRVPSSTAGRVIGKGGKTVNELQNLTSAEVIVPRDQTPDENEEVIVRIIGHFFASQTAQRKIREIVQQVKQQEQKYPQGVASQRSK
compound,measurement,setting,value
"Cn1c2c(c(=N)c3c1CCC3)CCC2 [Compound 1, 4-methyl-2,3,4,5,6,7-hexahydrodicyclopenta[b,e]pyridin-8(1H)-imine]",Difference,"[1]; Cmpd minus DMSO, -LOG(P-value) 0.946138",1.759
same,iBAQ Cmpd,[1]; replicates 1-3,20.2891 and 19.4609 and 19.6711
same,Difference,"[2]; Cmpd minus DMSO, -LOG(P-value) 0.808053",-3.043
same,iBAQ Cmpd,[2]; replicates 1-3,18.0352 and 17.6842 and 20.2605
same,Difference,"[3]; Cmpd minus DMSO, -LOG(P-value) 1.46412",-2.055
same,iBAQ Cmpd,[3]; replicates 1-3,21.5375 and 20.6129 and 20.1927
same,Difference,"[4]; Cmpd minus DMSO, -LOG(P-value) 1.1923",2.593
same,iBAQ Cmpd,[4]; replicates 1-3,19.0065 and 18.1463 and 18.0423
same,Difference,"[5]; Cmpd minus DMSO, -LOG(P-value) 0.76043",-0.4033
same,iBAQ Cmpd,[5]; replicates 1-3,27.3171 and 27.18 and 26.7127
same,Difference,"[6]; Cmpd minus DMSO, -LOG(P-value) 0.868477",-1.064
same,iBAQ Cmpd,[6]; replicates 1-3,20.5029 and 19.445 and 19.2006
same,Difference,"[7]; Cmpd minus DMSO, -LOG(P-value) 0.750637",-2.049
same,iBAQ Cmpd,[7]; replicates 1-3,14.3581 and 16.9929 and 16.8192
same,Difference,"[8]; Cmpd minus DMSO, -LOG(P-value) 0.819941",-1.912
same,iBAQ Cmpd,[8]; replicates 1-3,15.6356 and 17.305 and 16.0247
same,Difference,"[9]; Cmpd minus DMSO, -LOG(P-value) 1.15373",2.296
same,iBAQ Cmpd,[9]; replicates 1-3,15.2178 and 17.9982 and 17.5212
same,Difference,"[10]; Cmpd minus DMSO, -LOG(P-value) 1.57311",-2.921
same,iBAQ Cmpd,[10]; replicates 1-3,14.9119 and 15.2101 and 14.5309
